We go through 22 molecules from patent US9108921B2, “Therapeutic compounds and compositions” (AGIOS PHARMACEUTICALS, INC, priority 2014, dated 2015).

Assay [1] deals with PKR R532W (Homo sapiens, UniProt P30613, R532W). The assay is described as follows: PKR Mutant Assay, AC50 against PKR R532W. The class given is biochemical. The following applies: mutant PKR R532W enzyme. In short, it runs like this:
(§1)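 LDH-coupled NADH depletion read as A340 change at room temperature after ADP (0.22-1.65 mM) start. Compounds, tested from 100 μM final in 3-fold steps over 11 points with 1% DMSO, sat 60 min with enzyme (80-400 ng/well), PEP 0.1-0.5 mM and NADH 180 uM in Tris pH 7.5/KCl/MgCl2/DTT/BSA buffer.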

The target in assay [2] is PKR R510Q (Homo sapiens, UniProt P30613, R510Q). The assay is described as follows: PKR Mutant Assay, AC50 against PKR R510Q. The class given is biochemical. Conditions: mutant PKR R510Q enzyme. In short, it runs like this: as §1
Sequence of PKR R510Q (P30613 whole entry R510Q): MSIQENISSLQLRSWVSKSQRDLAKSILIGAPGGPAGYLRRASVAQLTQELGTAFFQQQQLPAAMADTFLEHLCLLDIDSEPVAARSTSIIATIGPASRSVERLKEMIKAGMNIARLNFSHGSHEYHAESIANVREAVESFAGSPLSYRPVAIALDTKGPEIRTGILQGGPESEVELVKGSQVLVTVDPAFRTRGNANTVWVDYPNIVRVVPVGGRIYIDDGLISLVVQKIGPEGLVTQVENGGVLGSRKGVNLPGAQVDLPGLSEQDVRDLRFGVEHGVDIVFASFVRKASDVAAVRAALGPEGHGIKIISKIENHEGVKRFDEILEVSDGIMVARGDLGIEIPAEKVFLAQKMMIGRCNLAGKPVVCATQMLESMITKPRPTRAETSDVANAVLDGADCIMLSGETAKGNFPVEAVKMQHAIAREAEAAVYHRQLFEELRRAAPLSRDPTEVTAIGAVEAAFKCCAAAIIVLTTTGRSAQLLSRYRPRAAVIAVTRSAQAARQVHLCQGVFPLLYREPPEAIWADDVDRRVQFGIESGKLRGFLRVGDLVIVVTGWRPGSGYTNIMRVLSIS
In assay [3] the target is T1, PKR WT (Homo sapiens, UniProt P30613). The assay is described as follows: PKR WT enzymatic AC50 assay. It is filed as biochemical. The following applies: wild type PKR. In short, it runs like this:
as §1

For assay [4], the target named is T1, PKR WT. The assay is described as follows: PKR WT cell based AC50 assay. Conditions: wild type PKR.

Sequence of PKR R532W (P30613 whole entry R532W): as the sequence (P30613 whole entry R510Q) above, with Q510R, R532W counted along it
T1 sequence (P30613 whole entry): as the sequence (P30613 whole entry R510Q) above, with Q510R counted along it

In general, AC50 refers to the midpoint of the concentration-response curve, whichever way the signal moves. Take `Nc1nc2c(S(=O)(=O)Nc3ccc(C(=O)N4CCC(O)(c5ccccc5Cl)CC4)cc3)cccc2s1` [Compound 407, 2-amino-N-(4-(4-(2-chlorophenyl)-4-hydroxypiperidine-1-carbonyl)phenyl)benzo[d]thiazole-4-sulfonamide]: the AC50 in assay [1], in assay [2], in assay [3] and in assay [4] was under 0.1 µM each time.
`CNc1nc2c(S(=O)(=O)Nc3ccc(C(=O)N4CCC(O)(CC(C)C)CC4)cc3)cccc2s1` [Compound 408, N-(4-(4-hydroxy-4-isobutylpiperidine-1-carbonyl)phenyl)-2-(methylamino)benzo[d]thiazole-4-sulfonamide]: the AC50 in assay [1], in assay [2], in assay [3] and in assay [4] was under 0.1 µM each time.
`Cn1cc(C2(O)CCN(C(=O)c3ccc(NS(=O)(=O)c4cccc5scnc45)cc3)CC2)cn1` [Compound 411, N-[4-[4-hydroxy-4-(1-methylpyrazol-4-yl)piperidine-1-carbonyl]phenyl]benzothiazole-4-sulfonamide]: the AC50 in assay [1] was under 0.1 µM; in assay [2] it was 0.101 to 1 µM; in assay [3] it was 0.101 to 1 µM; in assay [4] it was under 0.1 µM.
Consider `O=C(c1ccc(NS(=O)(=O)c2cccc3scnc23)cc1)N1CCC(O)(Cc2ccccc2C(F)(F)F)CC1` [Compound 412, N-(4-(4-hydroxy-4-(2-(trifluoromethyl)benzyl)piperidine-1-carbonyl)phenyl)benzo[d]thiazole-4-sulfonamide], for which the AC50 in assay [1] is under 0.1 µM; in assay [2], 0.101 to 1 µM; in assay [3] it was under 0.1 µM; in assay [4], 0.101 to 1 µM.
Turning to `Nc1nc2c(S(=O)(=O)Nc3ccc(C(=O)N4CCC(O)(CCCC(F)(F)F)CC4)cc3)cccc2s1` [Compound 420], the AC50 in assay [1], in assay [2], in assay [3] and in assay [4] was under 0.1 µM throughout.
In the case of `Nc1nc2c(S(=O)(=O)Nc3ccc(C(=O)N4CCC(O)(c5cccc(F)c5F)CC4)cc3)cccc2s1` [Compound 422], the AC50 in assay [1], in assay [2], in assay [3] and in assay [4] was under 0.1 µM in each case.
As for `CC(C)CC1(O)CCN(C(=O)c2ccc(NS(=O)(=O)c3cccc4c3OCO4)cc2)CC1` [Compound 423], the AC50 was under 0.1 µM in assay [1], 0.101 to 1 µM in assay [2], under 0.1 µM in assay [3] and under 0.1 µM in assay [4].
In the case of `O=C(c1ccc(NS(=O)(=O)c2cccc3c(O)ncnc23)cc1)N1CCC(O)(/C=C/CC(F)(F)F)CC1` [Compound 424], the AC50 in assay [1] is 0.101 to 1 µM; in assay [2], under 0.1 µM; in assay [3] it was under 0.1 µM; in assay [4], 0.101 to 1 µM.
`Nc1nc2c(S(=O)(=O)Nc3ccc(C(=O)N4CCC(O)(/C=C/CC(F)(F)F)CC4)cc3)cccc2s1` [Compound 425]: the AC50 is 0.101 to 1 µM in assay [1], under 0.1 µM in assay [2], under 0.1 µM in assay [3] and under 0.1 µM in assay [4].
Regarding `O=C(c1ccc(NS(=O)(=O)c2cccc3c(O)ncnc23)cc1)N1CCC(O)(CCC(F)(F)F)CC1` [Compound 426], the AC50 in assay [1], in assay [2], in assay [3] and in assay [4] was 0.101 to 1 µM each time.
Take `O=C(c1ccc(NS(=O)(=O)c2cccc3c(O)ncnc23)cc1)N1CCC(O)(CCCC(F)(F)F)CC1` [Compound 427]: the AC50 in assay [1], in assay [2], in assay [3] and in assay [4] was under 0.1 µM throughout.
Consider `O=C(c1ccc(NS(=O)(=O)c2cccc3c(O)ncnc23)cc1)N1CCC(O)(c2cccc(F)c2F)CC1` [Compound 428], for which the AC50 in assay [1] is under 0.1 µM; in assay [2], 0.101 to 1 µM; in assay [3], under 0.1 µM; in assay [4], under 0.1 µM.
Turning to `CC(CC1(O)CCN(C(=O)c2ccc(NS(=O)(=O)c3cccc4sc(N)nc34)cc2)CC1)C(F)(F)F` (stereo not shown) [Compound 429], the AC50 in assay [1], in assay [2], in assay [3] and in assay [4] was under 0.1 µM in each case.
In the case of `Nc1nc2c(S(=O)(=O)Nc3ccc(C(=O)N4CCC(O)(CCC(F)(F)F)CC4)cc3)cccc2s1` [Compound 430], the AC50 in assay [1] is under 0.1 µM; in assay [2] it was 0.101 to 1 µM; in assay [3] it was under 0.1 µM; in assay [4], 0.101 to 1 µM.
Regarding `CC(CC1(O)CCN(C(=O)c2ccc(NS(=O)(=O)c3cccc4c(O)ncnc34)cc2)CC1)C(F)(F)F` (stereo not shown) [Compound 431], the AC50 in assay [1] is under 0.1 µM; in assay [2], under 0.1 µM; in assay [3], under 0.1 µM; in assay [4], 0.101 to 1 µM.
Turning to `O=C(c1ccc(NS(=O)(=O)c2cccc3scnc23)cc1)N1CCC(O)(CC2CC2(F)F)CC1` (stereo not shown) [Compound 432], the AC50 in assay [1] is under 0.1 µM; in assay [2] it was 0.101 to 1 µM; in assay [3], under 0.1 µM; in assay [4], 0.101 to 1 µM.
`Cn1nccc1CC1(O)CCN(C(=O)c2ccc(NS(=O)(=O)c3cccc4scnc34)cc2)CC1` [Compound 433]: the AC50 in assay [1] was under 0.1 µM; in assay [2] it was 0.101 to 1 µM; in assay [3], 0.101 to 1 µM; in assay [4], 0.101 to 1 µM.
Regarding `Cn1cc(CC2(O)CCN(C(=O)c3ccc(NS(=O)(=O)c4cccc5scnc45)cc3)CC2)cn1` [Compound 434], the AC50 in assay [1] is under 0.1 µM; in assay [2], 0.101 to 1 µM; in assay [3], 0.101 to 1 µM; in assay [4], 0.101 to 1 µM.
For `CC(F)(F)CCC1(O)CCN(C(=O)c2ccc(NS(=O)(=O)c3cc(F)cc4sc(N)nc34)cc2)CC1` [Compound 435], the AC50 is under 0.1 µM in assay [1], under 0.1 µM in assay [2], under 0.1 µM in assay [3] and 0.101 to 1 µM in assay [4].
Turning to `CC(F)(F)CCC1(O)CCN(C(=O)c2ccc(NS(=O)(=O)c3cccc4nccnc34)cc2OC(F)F)CC1` [Compound 436], the concentration at half-maximal activity (AC50) in assay [1] is under 0.1 µM; in assay [2], 0.101 to 1 µM; in assay [3], 0.101 to 1 µM; in assay [4], 0.101 to 1 µM.
As for `CC(C)CC1(O)CCN(C(=O)c2ccc(NS(=O)(=O)c3cccc4ncc(N)nc34)cc2)CC1` [Compound 437], the AC50 in assay [1], in assay [2], in assay [3] and in assay [4] was under 0.1 µM each time.
`CC(C)CC1(O)CCN(C(=O)c2ccc(NS(=O)(=O)c3cccc4nc(N)cnc34)cc2)CC1` [Compound 439]: the AC50 in assay [1], in assay [2], in assay [3] and in assay [4] was under 0.1 µM in each case.
